From ChEMBL document CHEMBL1201862, “PubChem BioAssay data set” (2004) come the findings set out here.

By AC50 is commonly meant the concentration giving half of the maximal activity seen. Usually EC50 stands for the concentration needed to bring the measured effect to its halfway point. The CC50 is the concentration at which the toxic effect on the cells reaches its halfway point. What is called IC50 is the point on the concentration scale where inhibition reaches its midpoint.

Calls of active or inactive are those of the source. Square brackets hold non-standard residues; d marks the D form. Peptide text beside a SMILES is read from it. * marks the point of attachment. Hyp = O=C(O)[CH]1C[CH](O)CN1; Cbz = O=C(OCc1ccccc1)*; OBn = c1ccc(CO*)cc1 Some results are limits rather than exact numbers.

For one test, the system named is HEK293. The test can be described thus: inhibitors of LMP1-driven NF-kB reporter, dose response, cell-based, HEK293, luciferase, cherry-pick (AID 588343). The test is classed as functional. The note with it: Homo sapiens.
Test [1] is described as follows: cytotoxicity toward DRD oncogenic fibroblasts, dose response, cell-based, non-viral oncogenic, luminescence (AID 1934). The note with it: Homo sapiens. The test is classed as functional.
The test system of test [2] is Vero. The test can be described thus: cells. The test is classed as functional. The note with it: Chlorocebus sabaeus.
Test [3] concerns BJ. The test can be described thus: cytotoxicity toward Ras-transformed BJeLR fibroblasts, dose response, cell-based, alamar blue fluorescence, cherrypicked samples (AID 2631).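 Note: confirmatory dose-response assay in RAS-dependent BJ fibroblasts engineered with TERT, LT and ST, with cytotoxicity read by fluorescence.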 The settings on record: Homo sapiens. The test is classed as functional.
Test [4] has as its system BJ. The experiment in a line: cells. The test is classed as functional, cell-based. The note with it: Homo sapiens.
In test [5] the test system is BJ. The experiment in a line: cytotoxicity toward BJ-TERT-LT-ST fibroblasts, dose response, cell-based, RAS-independent, luminescence (AID 1935).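 Note: BJ fibroblasts immortalized with TERT plus LT and ST oncogenes.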 The note with it: Homo sapiens. The test is classed as functional.
Test [6] deals with BJ. The experiment in a line: cytotoxicity toward BJ-TERT fibroblasts, dose response, cell-based, RAS-independent, luminescence (AID 1933). The test is classed as functional. The settings on record: Homo sapiens.
The target in test [7] is T1, Sentrin-specific protease 8 (Homo sapiens, UniProt Q96LD8).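 Note: luminescence read-out of SENP8 inhibition, dose-response confirmation following an ultra-high-throughput screen.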
T1 sequence (Q96LD8 whole entry): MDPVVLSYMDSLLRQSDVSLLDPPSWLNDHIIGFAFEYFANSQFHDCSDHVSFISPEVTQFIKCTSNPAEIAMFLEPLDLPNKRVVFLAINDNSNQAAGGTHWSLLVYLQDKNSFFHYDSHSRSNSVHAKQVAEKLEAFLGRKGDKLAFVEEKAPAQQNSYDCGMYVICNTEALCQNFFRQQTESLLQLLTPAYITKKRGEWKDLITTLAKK
The test is classed as functional.

The target in another test is T2, Caspase-3 (Homo sapiens, UniProt P42574).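 Note: Dose-response selectivity test against caspase-3 for candidate inhibitors of sentrin-specific proteases (SENPs).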
T2 sequence (P42574 whole entry): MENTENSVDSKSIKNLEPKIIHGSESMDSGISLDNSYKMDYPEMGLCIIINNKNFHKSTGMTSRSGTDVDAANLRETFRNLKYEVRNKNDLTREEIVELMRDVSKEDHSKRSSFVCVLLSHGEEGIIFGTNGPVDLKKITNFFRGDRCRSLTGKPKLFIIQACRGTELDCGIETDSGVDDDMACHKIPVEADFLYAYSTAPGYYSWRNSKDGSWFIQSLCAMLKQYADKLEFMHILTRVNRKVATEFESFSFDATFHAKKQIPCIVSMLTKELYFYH
The test is classed as functional.

The target in test [8] is T3, Sentrin-specific protease 7 (Homo sapiens, UniProt Q9BQF6).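 Note: Luminescence-based dose-response confirmation of ultra-high-throughput screening hits, measuring inhibition of SENP7.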
T3 sequence (Q9BQF6 whole entry): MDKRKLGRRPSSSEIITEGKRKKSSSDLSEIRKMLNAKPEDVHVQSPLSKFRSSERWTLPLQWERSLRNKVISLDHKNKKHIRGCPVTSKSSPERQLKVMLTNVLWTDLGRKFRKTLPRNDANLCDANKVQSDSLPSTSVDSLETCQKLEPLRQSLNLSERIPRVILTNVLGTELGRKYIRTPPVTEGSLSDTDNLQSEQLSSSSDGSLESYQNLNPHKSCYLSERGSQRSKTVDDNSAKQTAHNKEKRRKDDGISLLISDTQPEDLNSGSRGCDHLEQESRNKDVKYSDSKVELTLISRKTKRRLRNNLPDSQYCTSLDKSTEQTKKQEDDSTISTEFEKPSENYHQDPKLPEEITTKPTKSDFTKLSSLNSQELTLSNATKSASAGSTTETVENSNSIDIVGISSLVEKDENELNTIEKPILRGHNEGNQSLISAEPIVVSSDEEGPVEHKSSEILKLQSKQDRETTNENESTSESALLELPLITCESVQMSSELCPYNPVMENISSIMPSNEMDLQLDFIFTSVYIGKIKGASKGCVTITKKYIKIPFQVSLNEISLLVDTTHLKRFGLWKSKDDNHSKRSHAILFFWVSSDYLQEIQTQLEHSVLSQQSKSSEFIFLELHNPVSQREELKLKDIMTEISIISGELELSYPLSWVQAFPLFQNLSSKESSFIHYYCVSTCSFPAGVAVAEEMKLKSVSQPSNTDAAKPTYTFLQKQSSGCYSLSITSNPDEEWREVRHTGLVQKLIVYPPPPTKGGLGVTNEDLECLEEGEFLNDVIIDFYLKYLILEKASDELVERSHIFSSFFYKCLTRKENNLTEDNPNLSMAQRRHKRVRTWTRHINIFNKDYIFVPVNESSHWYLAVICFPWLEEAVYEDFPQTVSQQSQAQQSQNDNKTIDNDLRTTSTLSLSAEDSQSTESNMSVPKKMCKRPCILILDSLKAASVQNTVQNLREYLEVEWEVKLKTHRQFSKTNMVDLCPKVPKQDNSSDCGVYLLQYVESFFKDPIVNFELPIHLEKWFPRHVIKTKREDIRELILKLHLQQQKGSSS
The test is classed as functional.

Test [9] concerns the target T4, Sentrin-specific protease 6 (Homo sapiens, UniProt Q9GZR1).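 Note: Luminescence-based dose-response confirmatory assay of SENP6 inhibition, following up an ultra-high-throughput screen.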
T4 sequence (Q9GZR1 whole entry): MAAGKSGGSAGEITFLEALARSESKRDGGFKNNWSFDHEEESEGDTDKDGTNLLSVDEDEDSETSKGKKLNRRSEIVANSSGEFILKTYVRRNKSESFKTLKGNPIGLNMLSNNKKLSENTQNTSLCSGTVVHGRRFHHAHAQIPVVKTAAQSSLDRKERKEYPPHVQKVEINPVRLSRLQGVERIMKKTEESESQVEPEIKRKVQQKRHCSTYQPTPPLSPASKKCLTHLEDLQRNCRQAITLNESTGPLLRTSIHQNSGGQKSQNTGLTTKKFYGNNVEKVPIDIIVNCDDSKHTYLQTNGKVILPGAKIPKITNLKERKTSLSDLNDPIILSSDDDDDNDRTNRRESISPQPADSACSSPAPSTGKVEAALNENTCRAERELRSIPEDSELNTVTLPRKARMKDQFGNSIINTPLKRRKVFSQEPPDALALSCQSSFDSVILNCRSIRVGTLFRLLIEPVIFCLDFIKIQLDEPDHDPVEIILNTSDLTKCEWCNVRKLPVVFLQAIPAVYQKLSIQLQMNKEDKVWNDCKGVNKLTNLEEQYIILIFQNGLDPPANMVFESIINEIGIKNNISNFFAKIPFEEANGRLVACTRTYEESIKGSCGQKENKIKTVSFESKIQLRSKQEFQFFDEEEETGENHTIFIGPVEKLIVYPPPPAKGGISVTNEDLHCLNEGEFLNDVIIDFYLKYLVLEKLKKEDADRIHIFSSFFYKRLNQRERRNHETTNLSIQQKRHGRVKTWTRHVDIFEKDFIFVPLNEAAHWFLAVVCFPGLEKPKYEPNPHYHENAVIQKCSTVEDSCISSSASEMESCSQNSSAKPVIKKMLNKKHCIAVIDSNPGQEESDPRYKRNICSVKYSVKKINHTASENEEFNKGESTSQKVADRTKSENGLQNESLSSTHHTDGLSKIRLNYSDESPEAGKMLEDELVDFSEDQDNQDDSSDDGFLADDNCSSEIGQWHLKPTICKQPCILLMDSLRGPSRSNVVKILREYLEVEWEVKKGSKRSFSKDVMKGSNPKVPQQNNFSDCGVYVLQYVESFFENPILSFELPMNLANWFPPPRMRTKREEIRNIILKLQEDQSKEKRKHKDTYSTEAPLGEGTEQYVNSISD
The test is classed as functional.

A short description of test [10]: HEp-2 cell cytotoxicity, dose response, cytotoxicity control for RSV inhibitor project, HTS (AID 2410). The test is classed as functional. The note with it: human respiratory syncytial virus.
The test system of the next test is H9c2. The experiment in a line: cells. The test is classed as functional, cell-based. The settings on record: Rattus norvegicus, H9c2, Myocardium.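 Note: confirmatory concentration-response retest of ultra-high-throughput screening hits for modulation of myocardial damage; cell death induced by hydrogen peroxide oxidative stress; compound pretreatment for 60 min then peroxide exposure for 2 h; potency is for protecting the cells against peroxide damage rather than for killing them.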
Test [11] deals with Vero. The test can be described thus: Vero cell cytotoxicity, cytotoxicity control for flavivirus capping enzyme inhibitors (AID 588742). The test is classed as functional. The note with it: Chlorocebus sabaeus.

In the case of `CCOCCCn1c(=S)[nH]c2ncccc2c1=O`, the concentration at half-maximal activity (AC50) in the test with HEK293 was 135 µM (active).

`O=C(CCCN1C(=O)/C(=C/c2cccc(Br)c2)SC1=S)NCCCN1CCOCC1`: the half-maximal effective concentration (EC50) in test [1] is 17.1 µM (active); in the test on BJ [3] it was > 133 µM (inactive); in the test with BJ [4] it was 14.7 µM (active); with BJ [5], > 150 µM (not active); in the test with BJ [6], 2.78 µM (inconclusive). Also, the CC50 with Vero [2] is > 25 µM (active).

For `Cc1cc(C=C2C(=O)c3ccccc3C2=O)c(C)n1C`, the concentration for half-maximal inhibition (IC50) in [7] is 74.6 µM (active); on Caspase-3, 35.2 µM (active); in [8] it was 24.6 µM (active); in [9] it was 56.1 µM (active).

Turning to `O=C(c1cc(-c2ccc(Cl)cc2Cl)on1)N1CCCCCC1`, the IC50 in test [7] was 20.5 µM (active); at Caspase-3, 17.2 µM (active); in test [8], 6.51 µM (active); in [9] it was 18.5 µM (active). Further, the 50% cytotoxic concentration (CC50) in [10] was 39.3 µM (active).

As to `CCCCOC(=O)Nc1ccc2c(C)cc(=O)oc2c1`, the IC50 in [7] was 12.7 µM (active); on Caspase-3, 7.45 µM (active); in test [8], 4.58 µM (active); in test [9], 8.26 µM (active).

As for `Oc1ccc2oc3c(c2c1/C=N/Cc1ccncc1)CCCC3`, the IC50 in the test with H9c2 was > 79 µM (inactive). The half-maximal cytotoxic concentration (CC50) with Vero [11] was > 40 µM (active).

Regarding `CC(NC(=O)CNC(=O)OCc1ccccc1)C(=O)N1CC(O)CC1C(=O)OCc1ccccc1` (stereo not drawn) (Cbz-Gly-Ala-[Hyp]-OBn; configuration not given here), the AC50 in the test on HEK293 is 273 µM (active).
